Measurements as given in patent publication US20230303631A1, “METHOD FOR INDUCING IMMUNITY TO SARS-CoV-2” (RIKEN, priority 2020, published 2023).
Where no end group is shown, it is not given here.

How the values were obtained:
[1] = system: A24-C1R cells
[2] = system: CD8 single-positive T cells; conditions: PBMCs of healthy donors HD1 to HD5, peptide 10 μM, 21 days with IL-2, then 16 hours with peptide, brefeldin A and monensin; FIG. 1
[3] = system: CD8 single-positive T cells; assay: Intracellular cytokine staining (IFN-γ, TNF-α) after restimulation with individual 15mer peptides; format: cell-based, human; conditions: for INF-γ production by CD8 single-positive T cells / TNF-α production by CD8 single-positive T cells: PBMCs of 4 healthy volunteers with HLA-A2402, cultured with 15mer mixture (each 10 μg/ml) and IL-2, restimulated with individual 15mer for 16 hours, FIG. 3
Description: Culture was carried out for 21 days in presence of IL-2 and a peptide and stimulation with a peptide was carried out in the presence of brefeldin and monensin in the same manner as in Example 1, and then, INF-γ production was examined. More specifically, to PBMCs of 4 healthy volunteers (HV) with HLA-A2402, a mixture of 15mer peptides was added such that the concentration of each peptide became 10 μg/ml. The PBMCs were cultured in the presence of IL-2. As a result, T cells having a binding affinity to a peptide in contact with them survive. Autogenous PBMCs were pulsed with a mixture of 15mer peptides every week, irradiated with 40 Gy and added to the above culture as a feeder. On Day 14 and 21, the mixture of 15mer peptides was further added. Thereafter, the culture obtained was pulsed with individual 15mer peptides and cultured for 16 hours in the presence of brefeldin and monensin to induce INF-γ production. Intracellular cytokine staining (anti-IFN-g-APC, anti-TNF-α-PE) were performed and peptide-specific cytokine producing CD8T cells were analyzed.

QYIKWPWYI [pep #4, QYIKWPWYI]
antigen-specific cytotoxic action of CTLs on peptide-pulsed A24-C1R cells [1]: exhibited antigen-specific cytotoxic action
induction of IFN-γ production in CD8 single-positive T cells (cytotoxic T cells) [2]: strong induction of IFN-γ production

GKYEQYIKWPWYIWL [15mer-2]
INF-γ production by CD8 single-positive T cells [3]: increased
TNF-α production by CD8 single-positive T cells [3]: increased

QYIKWPWYIWLGFIA [15mer-3]
INF-γ production by CD8 single-positive T cells [3]: increased
TNF-α production by CD8 single-positive T cells [3]: increased
ratio of INF-γ-positive, TNF-α-positive CD8T cells (stimulation of T cells) ([3]; comparison among the 15mer peptides, FIG. 4): stimulated T cells most satisfactorily

WPWYIWLGFIAGLIA [15mer-4]
INF-γ production by CD8 single-positive T cells [3]: increased
TNF-α production by CD8 single-positive T cells [3]: increased
